Source: PMC7139549, “TLD1433 Photosensitizer Inhibits Conjunctival Melanoma Cells in Zebrafish Ectopic and Orthotopic Tumour Models” (Cancers, 2020)
Read-outs that look alike come from different tables or passages of the source.

Key:
[1] = system: CRMM2 conjunctival melanoma cell line; assay: SRB cell viability assay, CRMM2; assay type: cell-based, Human
Protocol: (§1) TLD1433 is known to generate reactive oxygen species (ROS) with high quantum efficacy in many cancer cell lines. However, there is no report of the in vitro toxicity of this compound in eye melanoma (UM) cell lines. We determined the cell viability of three conjunctival melanoma cell lines (CRMM1, CRMM2 and CM2005.1), and three uveal melanoma cell lines (OMM1, OMM2.5, MEL270) in the presence of TLD1433, both in the dark or under green light irradiation (21 mW/cm^2, 19 J/cm^2, 520 nm, 15 min), and compared this viability to epidermoid carcinoma A431 and cutaneous melanoma A375 cell lines under the same conditions. The protocol used was based on previous work from the Bonnet group, and differed slightly from recommendations from McFarland et al.. […] The effective concentration (EC50) values, i.e., the concentration required to reduce cell viability by 50% compared to untreated wells, were assessed by fitting the dose-response curves with a Hill equation. The phototoxicity index (PI), defined as the ratio of the dark EC50 to the light EC50, was also calculated and represents the amplification of TLD1433 activity with a light trigger. […]
(§2) Figure 2 Cell viability after TLD1433 treatment of eight tumour cell lines (CRMM1, CRMM2, CM2005.1, OMM1, OMM2.5, MEL270, A431, A375). […] The absorbance of Sulforhodamine B in solution was measured at 520 nm. […]
(§3) At day 0, cells were detached using 1mL of trypsin, resuspended in 4 mL of media and transferred to a 15 mL corning falcon tube. Cells were counted using trypan blue and BioRad® TC20™ automated cell counter (Figure 11). Dilutions of 6000 (CRMM1), 6000 (CRMM2), 8000 (CM2005.1), 6000 (OMM1), 6000 (OMM2.5), 6000 (MEL270) 8000 (A431), and 4000 (A375) cells/well were calculated from each cell suspension at a final volume of 6 mL using the following formula: Vc=(Vt×10C)/Lc where Vt = total volume of solution, C = number of cells per well/per 100 μL and Lc = live cells count (cells/mL). […] Next day, the dye was dissolved using Tri-base (0.25%) and absorbance of SRB at 510 nm was recorded from each well using a Tecan plate reader. […]

[2] = system: CRMM1 conjunctival melanoma cell line; assay: SRB cell viability assay, CRMM1; assay type: cell-based, Human
Protocol: as §1, §2, §3

SMILES: Cc1ccnc(-c2cc(C)ccn2)c1.Cc1ccnc(-c2cc(C)ccn2)c1.[Cl-].[Cl-].[Ru+2].c1csc(-c2ccc(-c3ccc(-c4nc5c6cccnc6c6ncccc6c5[nH]4)s3)s2)c1 [TLD1433]
- EC50 ([1]; CRMM2, dark, 24 h treatment, SRB, read-out: EC50, dark): 1000 nM
- EC50 ([1]; CRMM2, green light 520 nm, 15 min, 21 mW/cm^2, 19 J.cm^−2, DLI 24 h, read-out: EC50,light): 4.8 nM
- PI (photo index) ([1]; CRMM2, ratio of dark and light EC50, 19 J.cm^−2 green light): 210
- EC50 ([2]; CRMM1, dark, 24 h treatment, SRB, read-out: EC50, dark): 840 nM
- EC50 ([2]; CRMM1, green light 520 nm, 15 min, 21 mW/cm^2, 19 J.cm^−2, DLI 24 h, read-out: EC50,light): 5.9 nM
- PI (photo index) ([2]; CRMM1, ratio of dark and light EC50, 19 J.cm^−2 green light): 140
